These compounds were tested on MIA-PACA2 pancreatic cancer cell lines (assay: Cell proliferation assay (CellTiter 96 AQueous One)). Settings: Homo sapiens, MIA PaCa-2; MIA-PACA2, same assay as the % inhibition (standard conditions).
Type: cell-based
Compound `O=c1nc(-c2ccccn2)[nH]c2ccsc12` [drawing 1494] has an IC50 of over 1000 nM. With `O=C(CN1CCN(c2nc(-c3ccccn3)nc3sc(-c4ccccc4)cc23)CC1)N1CCCC1` [drawing 1606] the IC50 was over 1000 nM. `COc1ccnc(-c2nc(O)c3ccsc3n2)c1` [drawing 1631] showed an IC50 of 100 to 500 nM.

Same assay, conditions: Homo sapiens, MIA PaCa-2; at 30 μM, MIA-PACA2
In the case of `Cc1sc2c(O)nc(-c3ccccn3)nc2c1-c1ccccc1` [drawing 1781], the inhibition at 30 µM was 76 to 100%. `O=C(Nc1nc(-c2ccccn2)cs1)c1ccc(F)cc1` [drawing 1486] was tested, and the inhibition at 30 µM was 76 to 100%. Work on `COC(=O)C(C)CN(Cc1cc(Br)ccc1[N+](=O)[O-])C1CC1` (stereo not drawn) [drawing 1534] yielded an inhibition at 30 µM of 1 to 25%. For `O=C(NCCc1ccnc(O)c1)c1csc2nc(-c3ccccn3)nc(N3CCOCC3)c12` [drawing 1676], the inhibition at 30 µM was 51 to 75%. For `Cc1c(C(=O)Nc2nnc(-c3ccccn3)[nH]2)oc2ccccc12` [drawing 1395], the inhibition at 30 µM was 76 to 100%. In the case of `O=C(Cn1c(=O)cnc2ccccc21)Nc1nc(-c2ccccn2)cs1` [drawing 1476], the inhibition at 30 µM was 76 to 100%. Work on `Cc1c(C(=O)N(C)C)sc2[nH]c(-c3ccccn3)nc(=O)c12` [drawing 1497] yielded an inhibition at 30 µM of 51 to 75%. In the case of `Cc1nc(-c2ccccn2)nc(O)c1CCC(=O)Nc1cccc(OCC(=O)N2CCCC2)c1` [drawing 1507], the inhibition at 30 µM was 1 to 25%. `O=C(c1cc2nc(-c3ccccn3)nc(O)c2s1)N1CCOC(c2ccccc2)C1` (stereo not drawn) [drawing 1718] showed an inhibition at 30 µM of 76 to 100%. For `CCC(C)(C)c1ccc(OCCCC(=O)NC(C(=O)OC)C(C)C)c(C(C)(C)CC)c1` (stereo not drawn) [drawing 1524], the inhibition at 30 µM was 76 to 100%. `COc1cc(-c2csc3c(O)nc(-c4ccccn4)nc23)cnc1C(F)(F)F` [drawing 1760] showed an inhibition at 30 µM of 76 to 100%. `O=c1nc(-c2ccccn2)[nH]c2c1CCC2` [drawing 1498] was tested, and the inhibition at 30 µM was 1 to 25%. For `Cn1cc(-c2nc(C(=O)Nc3nnc(-c4ccccn4)[nH]3)cs2)cn1` [drawing 1403], the inhibition at 30 µM was 76 to 100%. In the case of `O=C(Cc1ccccc1)NCCC(=O)Nc1nnc(-c2ccccn2)[nH]1` [drawing 1413], the inhibition at 30 µM was 1 to 25%. With `O=C(c1csc2c(O)nc(-c3ccccn3)nc12)N(CCO)CCOCCO` [drawing 1576] the inhibition at 30 µM was 1 to 25%. Work on `Nc1nc(-c2ccccn2)nc2scc(Br)c12` [drawing 1770] yielded an inhibition at 30 µM of 1 to 25%. With `N#Cc1ccc2c(c1)CCCC2C(=O)Nc1ccnc(-c2ccccn2)n1` (stereo not drawn) [drawing 1731] the inhibition at 30 µM was 76 to 100%. `Cc1ccccc1C1CN(C(=O)c2csc3c(O)nc(-c4ccccn4)nc23)CCN1` (stereo not drawn) [drawing 1668] gave an inhibition at 30 µM of 76 to 100%. For `O=S1(=O)CCC(Nc2nc(-c3ccccn3)nc3scc(-c4ccccc4)c23)C1` (stereo not drawn) [drawing 1615], the inhibition at 30 µM was 76 to 100%. With `Cn1cc(C2CN(C(=O)c3csc4c(O)nc(-c5ccccn5)nc34)CCN2)cn1` (stereo not drawn) [drawing 1670] the inhibition at 30 µM was 1 to 25%. `O=C(c1csc2c(O)nc(-c3ccccn3)nc12)N1CCNC(Cc2ccc(F)cc2)C1` (stereo not drawn) [drawing 1707] showed an inhibition at 30 µM of 51 to 75%. Compound `Cc1nc(-c2ccccn2)nc(O)c1CCC(=O)NCCc1cccs1` [drawing 1502] has an inhibition at 30 µM of 76 to 100%. Work on `COc1ccc(-c2csc3c(O)nc(-c4ccccn4)nc23)c(C)c1` [drawing 1757] yielded an inhibition at 30 µM of 76 to 100%. Work on `CC(Oc1ccccc1C#N)C(=O)Nc1nnc(-c2ccccn2)[nH]1` (stereo not drawn) [drawing 1423] yielded an inhibition at 30 µM of 76 to 100%. In the case of `CCc1ccccc1OCC(=O)Nc1nnc(-c2ccccn2)[nH]1` [drawing 1442], the inhibition at 30 µM was 76 to 100%. `OCC1(c2ccc(-c3csc4c(O)nc(-c5ccccn5)nc34)cc2)CC1` [drawing 1762] was tested, and the inhibition at 30 µM was 76 to 100%. In the case of `O=C(Nc1nnc(-c2ccccn2)[nH]1)c1cccc(NC(=O)C2CCCO2)c1` (stereo not drawn) [drawing 1414], the inhibition at 30 µM was 51 to 75%. Work on `O=C(Nc1nnc(-c2ccccn2)[nH]1)c1nc(N2CCOCC2)ncc1Cl` [drawing 1421] yielded an inhibition at 30 µM of 76 to 100%. Work on `O=C(CCNC(=O)c1ccco1)Nc1nnc(-c2ccccn2)[nH]1` [drawing 1417] yielded an inhibition at 30 µM of 76 to 100%. `COc1cc(N2CCN(C(=O)c3csc4c(O)nc(-c5ccccn5)nc34)CC2)cc(OC)c1OC` [drawing 1651] was tested, and the inhibition at 30 µM was 51 to 75%. `O=c1nc(-c2ccccn2)[nH]c2scc(-c3cccs3)c12` [drawing 1490] was tested, and the inhibition at 30 µM was 76 to 100%. Work on `Cc1cc2nc(-c3ccccn3)nc(N)c2s1` [drawing 1712] yielded an inhibition at 30 µM of 76 to 100%. `O=S1(=O)CCC(N2CCN(c3nc(-c4ccccn4)nc4scc(-c5ccccc5)c34)CC2)C1` (stereo not drawn) [drawing 1608] was tested, and the inhibition at 30 µM was 76 to 100%. In the case of `CS(=O)(=O)Cc1ccc(C(=O)Nc2nc(-c3ccccn3)cs2)cc1` [drawing 1479], the inhibition at 30 µM was 76 to 100%. Work on `COc1ccc(CCC(=O)Nc2nnc(-c3ccccn3)[nH]2)cc1` [drawing 1398] yielded an inhibition at 30 µM of 51 to 75%. Work on `Nc1nc(-c2ccccn2)nc2c(Br)csc12` [drawing 1768] yielded an inhibition at 30 µM of 25 to 50%. With `CN(Cc1nnc(-c2ccccc2Cl)o1)Cc1ccccc1C(F)(F)F` [drawing 1406] the inhibition at 30 µM was 25 to 50%. For `Cc1cc(OC(F)F)ccc1-c1csc2c(O)nc(-c3ccccn3)nc12` [drawing 1754], the inhibition at 30 µM was 76 to 100%. In the case of `Cc1ccc(OC2CCCC2)c(-c2csc3c(O)nc(-c4ccccn4)nc23)c1` [drawing 1720], the inhibition at 30 µM was 76 to 100%. With `Oc1nc(-c2ccccn2)nc2c(-c3ccc(OC4CCCC4)cc3)csc12` [drawing 1739] the inhibition at 30 µM was 76 to 100%. Work on `O=C(COc1ccc(F)cc1F)Nc1nnc(-c2ccccn2)[nH]1` [drawing 1388] yielded an inhibition at 30 µM of 51 to 75%. For `CN1CCN(c2nc(-c3ccccn3)nc3scc(C(=O)NCCc4cnc(O)nc4)c23)CC1` [drawing 1775], the inhibition at 30 µM was 25 to 50%. Compound `O=C(Nc1nc(-c2ccccn2)cs1)C1COc2ccccc2O1` (stereo not drawn) [drawing 1473] has an inhibition at 30 µM of 76 to 100%. `Nc1nc(O)c2scc(C(=O)NCCc3cccnc3)c2n1` [drawing 1560] gave an inhibition at 30 µM of 1 to 25%. With `Cc1cccc(OCC(=O)Nc2nnc(-c3ccccn3)[nH]2)c1` [drawing 1464] the inhibition at 30 µM was 51 to 75%. `CC(OCc1ccccc1)C(=O)Nc1nnc(-c2ccccn2)[nH]1` (stereo not drawn) [drawing 1428] was tested, and the inhibition at 30 µM was 51 to 75%. `Cc1c(C(=O)Nc2nnc(-c3ccccn3)[nH]2)oc2c1C(=O)CCC2` [drawing 1404] gave an inhibition at 30 µM of 76 to 100%. Work on `O=C(c1csc2c(O)nc(-c3ccccn3)nc12)N1CCC(N2CCCC2=O)CC1` [drawing 1568] yielded an inhibition at 30 µM of 1 to 25%. With `COc1cnc(-c2ccccn2)nc1O` [drawing 1791] the inhibition at 30 µM was 76 to 100%. `CC1CCN(C(=O)c2csc3c(O)nc(-c4ccccn4)nc23)CC1` [drawing 1563] showed an inhibition at 30 µM of 76 to 100%. `Oc1nc(-c2ccccn2)nc2c(-c3ccc(C4CCC4)cc3)csc12` [drawing 1741] gave an inhibition at 30 µM of 76 to 100%. `COC(=O)c1csc2nc(-c3ccccn3)nc(N)c12` [drawing 1771] was tested, and the inhibition at 30 µM was 76 to 100%. `O=c1nc(-c2ccccn2)[nH]c2ccsc12` [drawing 1494] was tested, and the inhibition at 30 µM was 1 to 25%. `O=C(CN1CCN(c2nc(-c3ccccn3)nc3sc(-c4ccccc4)cc23)CC1)N1CCCC1` [drawing 1606] showed an inhibition at 30 µM of 76 to 100%. Compound `COc1ccc(N2CCN(C(=O)c3csc4c(O)nc(-c5ccccn5)nc34)CC2)c(OC)c1` [drawing 1652] has an inhibition at 30 µM of 76 to 100%. In the case of `COc1ccnc(-c2nc(O)c3ccsc3n2)c1` [drawing 1631], the inhibition at 30 µM was 76 to 100%. In the case of `Cc1oc(-c2ccccc2)nc1C(=O)Nc1nnc(-c2ccccn2)[nH]1` [drawing 1393], the inhibition at 30 µM was 76 to 100%. `O=C(Nc1nnc(-c2ccccn2)[nH]1)C1CC(=O)N(Cc2cccc(C(F)(F)F)c2)C1` (stereo not drawn) [drawing 1458] gave an inhibition at 30 µM of 76 to 100%. `c1ccc(-c2csc3nc(-c4ccccn4)nc(N4CCN(CCN5CCCC5)CC4)c23)cc1` [drawing 1616] gave an inhibition at 30 µM of 76 to 100%. `COc1ncc(CCNC(=O)c2csc3nc(-c4ccccn4)nc(N4CCOCC4)c23)cn1` [drawing 1642] gave an inhibition at 30 µM of 76 to 100%. `Cc1ccc(C(=O)Nc2nnc(-c3ccccn3)[nH]2)cc1S(C)(=O)=O` [drawing 1391] was tested, and the inhibition at 30 µM was 51 to 75%. Compound `CCCNC(=O)CN1CCN(c2nc(-c3ccccn3)nc3sc(-c4ccccc4)cc23)CC1` [drawing 1598] has an inhibition at 30 µM of 76 to 100%. `COc1nc(-c2ccccn2)nc2c(C3CCCC3)csc12` [drawing 1793] was tested, and the inhibition at 30 µM was 76 to 100%. `Cc1ccc(CC(=O)Nc2nnc(-c3ccccn3)[nH]2)s1` [drawing 1433] was tested, and the inhibition at 30 µM was 76 to 100%. Compound `Cc1cncc(-c2csc3c(O)nc(-c4ccccn4)nc23)c1` [drawing 1789] has an inhibition at 30 µM of 76 to 100%. `O=C(c1csc2c(O)nc(-c3ccccn3)nc12)N1CCN(c2ccncc2)CC1` [drawing 1570] was tested, and the inhibition at 30 µM was 76 to 100%. `CC(C)(C(=O)Nc1ccnc(-c2ccccn2)n1)c1ccc(C#N)cc1` [drawing 1645] was tested, and the inhibition at 30 µM was 76 to 100%. With `O=C(c1csc2c(O)nc(-c3ccccn3)nc12)N1CCOC(c2nccs2)C1` (stereo not drawn) [drawing 1636] the inhibition at 30 µM was 76 to 100%. Work on `O=C(Nc1nnc(-c2ccccn2)[nH]1)c1ccc2c(c1)CCO2` [drawing 1386] yielded an inhibition at 30 µM of 76 to 100%. Work on `COc1ccc(COCC(=O)Nc2ccnc(-c3ccccn3)n2)cn1` [drawing 1585] yielded an inhibition at 30 µM of 1 to 25%. `NC(=O)c1ccc(OCC(=O)Nc2nnc(-c3ccccn3)[nH]2)cc1` [drawing 1450] gave an inhibition at 30 µM of 1 to 25%. Work on `O=C(CN1CCN(c2nc(-c3ccccn3)nc3scc(-c4ccccc4)c23)CC1)NC1CC1` [drawing 1621] yielded an inhibition at 30 µM of 76 to 100%. Compound `Brc1csc2nc(-c3ccccn3)nc(N3CCOCC3)c12` [drawing 1587] has an inhibition at 30 µM of 25 to 50%. With `COc1ccnc(-c2nc(O)c3c(C(F)(F)F)csc3n2)c1` [drawing 1709] the inhibition at 30 µM was 76 to 100%. In the case of `c1ccc(-c2csc3nc(-c4ccccn4)nc(N4CCN(CC5CCCO5)CC4)c23)cc1` (stereo not drawn) [drawing 1603], the inhibition at 30 µM was 76 to 100%. For `O=C(Cc1cccc(F)c1)Nc1nc(-c2ccccn2)cs1` [drawing 1484], the inhibition at 30 µM was 76 to 100%. Work on `COc1cnc(C2CCCN2)nc1O` (stereo not drawn) [drawing 1792] yielded an inhibition at 30 µM of 51 to 75%. With `O=C(Cc1ccc2c(c1)OCCO2)Nc1nnc(-c2ccccn2)[nH]1` [drawing 1461] the inhibition at 30 µM was 51 to 75%. Work on `Cc1sc2nc(-c3ccccn3)nc(NCCc3nccn3C)c2c1-c1ccccc1` [drawing 1597] yielded an inhibition at 30 µM of 76 to 100%. For `Oc1nc(-c2ccccn2)nc2c(-c3cc(F)cc(F)c3)csc12` [drawing 1776], the inhibition at 30 µM was 76 to 100%. `O=C1CN(c2nc(-c3ccccn3)nc3scc(-c4ccccc4)c23)CCN1CCO` [drawing 1594] was tested, and the inhibition at 30 µM was 51 to 75%. Work on `OC1CCN(c2nc(-c3ccccn3)nc3scc(-c4ccccc4)c23)CC1` [drawing 1619] yielded an inhibition at 30 µM of 76 to 100%. With `Cc1cc2c(=O)nc(-c3cc(OCC(F)F)ccn3)[nH]c2s1` [drawing 1500] the inhibition at 30 µM was 76 to 100%. In the case of `COC(=O)C(C)CN(Cc1ccccc1)c1nc(C(F)(F)F)ccc1C#N` (stereo not drawn) [drawing 1536], the inhibition at 30 µM was 51 to 75%.
